{
  "source": "patent EP0162592B1",
  "about": "“Heterocyclic amino compounds” (GLAXO GROUP LIMITED, priority 1984, dated 1985)",
  "tested_on": "α1-adrenoreceptor",
  "experiment": "a1-Adrenoreceptor antagonist action: prevention of phenylephrine contractions in rat isolated anococcygeus muscle (Schild analysis)",
  "type": "cell-based",
  "details": "agonist phenylephrine, KB = concentration shifting the agonist log10 (concentration)/response curve to the right by a factor of 2, read-out: KB value at a,-adrenoreceptors",
  "experimental": "The a-adrenoreceptor-type selectivity of the compounds of general formula (I) is similarly assessed by measuring the ability to produce a parallel shift to the right of the logio (concentration)/response curve for the a,-adrenoreceptor agonist phenylephrine. The a,-adrenoreceptor-mediated responses of phenylephrine measured were contractions of the rat isolated anococcygeus muscle (Leighton, Butz & Parameter, Eur.J.Pharmac., 1979, 58 27-38).\nCompounds were tested for their ability to prevent the action of α1-adrenoreceptor agonist phenylephrine in the rat isolated anococcygens muscle (Leighton, Butz & Parmeter, Eur. J. Pharmac., 1979 58 27-38). Antagonism of the effect of phenylephrine was quantified by measuring the parallel shift to the right of the phenylephrine log10 (concentration)/response curve in the presence of increasing concentrations of the test compound.\nIn (1) and (2) potency and competiveness of antagonism were determined by the method of Arunlakshana & Schild (Br. J. Pharmac. 1959, 14 48-58).",
  "note": "Counter-ions that a name gives are not always drawn.",
  "data": [
    {"smiles": "c1ccc2c(c1)C[C@H]1CNC[C@@H]1O2", "note": "(racemic) [Example 2, (±)-trans-1,2,3,3a,9,9a-Hexahydro[1]benzopyrano[2,3-c]pyrrole, hydrochloride]", "values": [
      {"measurement": "Kb", "value": "> 10", "unit": "µM"}
    ]}
  ]
}
